Laboratory results taken from patent US20230085307A1, “PYRIDAZINONE COMPOUND AND HERBICIDE” (NISSAN CHEMICAL CORPORATION, priority 2019, published 2023).

Tests used:
[1] = tested on: lambsquarters; experiment: Test Example 5: herbicidal effect by foliage application, plastic box (Table 20, symbol O); format: in vivo, lambsquarters (Chenopodium album); conditions: foliage application, three weeks after application
In short: (§1)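 Post-emergence foliar test in sterilized diluvial soil. Compound applied as water-diluted emulsion at a predetermined rate to 14-day-old plants; evaluation at three weeks.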

[2] = tested on: windgrass; experiment: Test Example 4: herbicidal effect by soil treatment (Table 19, symbol L); format: in vivo, windgrass (Apera spica-venti)
In short: (§2)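 Scoring uses the grading scale of an earlier test, three weeks post-application. Treatment consists of spraying a diluted emulsion formulation across the surface of sterilized diluvial soil in which seeds are buried near 1.5 cm deep; boxes are kept in a greenhouse between 25° C. and 30° C.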

[3] = tested on: redroot pigweed; experiment: Test Example 4: herbicidal effect by soil treatment (Table 19, symbol N); format: in vivo, redroot pigweed (Amaranthus retroflexus)
In short: as §2

[4] = tested on: windgrass; experiment: Test Example 5: herbicidal effect by foliage application, plastic box (Table 20, symbol L); format: in vivo, windgrass (Apera spica-venti); conditions: foliage application, three weeks after application
In short: as §1

[5] = tested on: rice flat sedge; experiment: Test Example 3: herbicidal effect by foliage application, Wagner pot (Table 18, symbol E); format: in vivo, rice flat sedge (Cyperus iria)
In short: (§3)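 Plants were sown in alluvial soil held under 0.1–0.5 cm standing water and grown 14 days in a greenhouse at 25–30 °C. An emulsifiable formulation, water-diluted to the set dose, was then sprayed onto the foliage, and effects were scored three weeks later using previously defined criteria.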

[6] = tested on: southern crabgrass; experiment: Test Example 4: herbicidal effect by soil treatment (Table 19, symbol F); format: in vivo, southern crabgrass (Digitaria ciliaris)
In short: as §2

[7] = tested on: persian speedwell; experiment: Test Example 4: herbicidal effect by soil treatment (Table 19, symbol R); format: in vivo, Persian speedwell (Veronica persica)
In short: as §2

[8] = tested on: barnyard grass; experiment: Test Example 5: herbicidal effect by foliage application, plastic box (Table 20, symbol H); format: in vivo, barnyard grass (Echinochloa crus-galli); conditions: foliage application, three weeks after application
In short: as §1

[9] = tested on: oval-leafed pondweed; experiment: Test Example 1: herbicidal activity, application before weed generation under submerged conditions (Table 16, symbol C); format: in vivo, oval-leafed pondweed (Monochoria vaginalis)
In short: (§4)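 Submerged Wagner pots (alluvial soil, 4 cm water) sown with weed seeds and planted with 2.5-leaf rice seedlings; emulsifiable concentrate diluted in water applied to water surface on sowing day. Held in greenhouse at 25-30 °C; injury scored 0-5 by herbicidal rate after three weeks.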

[10] = tested on: late watergrass; experiment: Test Example 1: herbicidal activity, application before weed generation under submerged conditions (Table 16, symbol A); format: in vivo, late watergrass (Echinochloa oryzicola)
In short: as §4

[11] = tested on: Chinese sprangletop; experiment: Test Example 3: herbicidal effect by foliage application, Wagner pot (Table 18, symbol D); format: in vivo, chinese sprangletop (Leptochloa chinensis)
In short: as §3

[12] = tested on: wild oat; experiment: Test Example 5: herbicidal effect by foliage application, plastic box (Table 20, symbol I); format: in vivo, wild oat (Avena fatua); conditions: foliage application, three weeks after application
In short: as §1

[13] = tested on: oval-leafed pondweed; experiment: Test Example 2: herbicidal activity, application during weed generation under submerged conditions (Table 17, symbol C); format: in vivo, oval-leafed pondweed (Monochoria vaginalis); conditions: application during weed generation, submerged conditions
In short: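 Effect on each weed is rated three weeks post-treatment, using the same scoring criteria as the preceding test. Plants grow from mixed-sown seed in flooded alluvial soil (4 cm water) at 25° C. to 30° C., and are treated at one to two leaves with diluted emulsion dropped onto the water.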

[14] = tested on: southern crabgrass; experiment: Test Example 5: herbicidal effect by foliage application, plastic box (Table 20, symbol F); format: in vivo, southern crabgrass (Digitaria ciliaris); conditions: foliage application, three weeks after application
In short: as §1

[15] = tested on: false cleavers; experiment: Test Example 4: herbicidal effect by soil treatment (Table 19, symbol Q); format: in vivo, false cleavers (Galium spurium)
In short: as §2

[16] = tested on: green foxtail; experiment: Test Example 5: herbicidal effect by foliage application, plastic box (Table 20, symbol G); format: in vivo, green foxtail (Setaria viridis); conditions: foliage application, three weeks after application
In short: as §1

[17] = tested on: Japanese bulrush; experiment: Test Example 1: herbicidal activity, application before weed generation under submerged conditions (Table 16, symbol B); format: in vivo, Japanese bulrush (Schoenoplectus juncoides)
In short: as §4

[18] = amount of applied herbicide 320 g/ha
[19] = amount of applied herbicide 323 g/ha

SMILES | O: lambsquarters, herbicidal effect grade ([1]; 320 g/ha) | L: windgrass, herbicidal effect grade [2, 18] | N: redroot pigweed, herbicidal effect grade [3, 18] | L: windgrass, herbicidal effect grade ([4]; 320 g/ha) | herbicidal effect on rice flat sedge (E) ([5]; 320 g/ha) | F: southern crabgrass, herbicidal effect grade [6, 18] | R: persian speedwell, herbicidal effect grade [7, 18] | H: barnyard grass, herbicidal effect grade ([8]; 320 g/ha) | Herbicidal effect, C: oval-leafed pondweed [9, 18] | Herbicidal effect, A: late watergrass [10, 18] | herbicidal effect on Chinese sprangletop (D) ([11]; 320 g/ha) | I: wild oat, herbicidal effect grade ([12]; 320 g/ha) | herbicidal effect rating, C: oval-leafed pondweed ([13]; AAH 320 g/ha) | F: southern crabgrass, herbicidal effect grade ([14]; 320 g/ha) | Q: false cleavers, herbicidal effect grade [15, 18] | G: green foxtail, herbicidal effect grade ([16]; 320 g/ha) | Herbicidal effect, B: Japanese bulrush [17, 18] | also measured
CCOc1ccc2c(-c3c(O)c(C)nn(C)c3=O)c(-c3ccccc3OC)sc2c1 [3-089] | 4 (Herbicidal rate of 70% or more and less than 90%) | 4 (Herbicidal rate of 70% or more and less than 90%) | 5 (Herbicidal rate of 90% or more (almost completely withered)) | 5 (Herbicidal rate of 90% or more (almost completely withered)) | 5 (Herbicidal rate of 90% or more (almost completely withered)) | 5 (Herbicidal rate of 90% or more (almost completely withered)) | 5 (Herbicidal rate of 90% or more (almost completely withered)) | 5 (Herbicidal rate of 90% or more (almost completely withered)) | 5 (Herbicidal rate of 90% or more (almost completely withered)) | 5 (Herbicidal rate of 90% or more (almost completely withered)) | 4 (Herbicidal rate of 70% or more and less than 90%) | 3 (Herbicidal rate of 40% or more and less than 70%) | 5 (Herbicidal rate of 90% or more (almost completely withered)) | 4 (Herbicidal rate of 70% or more and less than 90%) | 5 (Herbicidal rate of 90% or more (almost completely withered)) | 4 (Herbicidal rate of 70% or more and less than 90%) | 5 (Herbicidal rate of 90% or more (almost completely withered)) | 
CCOc1ccc2c(-c3c(O)c(C)nn(C)c3=O)c(-c3ccccc3OCC)sc2c1 [3-093] | 5 (Herbicidal rate of 90% or more (almost completely withered)) | 4 (Herbicidal rate of 70% or more and less than 90%) | 5 (Herbicidal rate of 90% or more (almost completely withered)) | 5 (Herbicidal rate of 90% or more (almost completely withered)) | 5 (Herbicidal rate of 90% or more (almost completely withered)) | 5 (Herbicidal rate of 90% or more (almost completely withered)) | 5 (Herbicidal rate of 90% or more (almost completely withered)) | 5 (Herbicidal rate of 90% or more (almost completely withered)) | 5 (Herbicidal rate of 90% or more (almost completely withered)) | 5 (Herbicidal rate of 90% or more (almost completely withered)) | 5 (Herbicidal rate of 90% or more (almost completely withered)) | 4 (Herbicidal rate of 70% or more and less than 90%) | 5 (Herbicidal rate of 90% or more (almost completely withered)) | 5 (Herbicidal rate of 90% or more (almost completely withered)) | 3 (Herbicidal rate of 40% or more and less than 70%) | 5 (Herbicidal rate of 90% or more (almost completely withered)) | 5 (Herbicidal rate of 90% or more (almost completely withered)) | 
CCCC(=O)Oc1c(C)nn(C)c(=O)c1-c1c(-c2ccccc2OCC)sc2cc(OCC)ccc12 [3-094] |  |  |  |  |  |  |  |  |  |  |  |  |  |  |  |  |  | O: lambsquarters, herbicidal effect grade ([1]; 323 g/ha): 4 (Herbicidal rate of 70% or more and less than 90%); L: windgrass, herbicidal effect grade [2, 19]: 4 (Herbicidal rate of 70% or more and less than 90%); N: redroot pigweed, herbicidal effect grade [3, 19]: 5 (Herbicidal rate of 90% or more (almost completely withered)); L: windgrass, herbicidal effect grade ([4]; 323 g/ha): 5 (Herbicidal rate of 90% or more (almost completely withered)); herbicidal effect on rice flat sedge (E) ([5]; 323 g/ha): 5 (Herbicidal rate of 90% or more (almost completely withered)); F: southern crabgrass, herbicidal effect grade [6, 19]: 3 (Herbicidal rate of 40% or more and less than 70%); R: persian speedwell, herbicidal effect grade [7, 19]: 5 (Herbicidal rate of 90% or more (almost completely withered)); H: barnyard grass, herbicidal effect grade ([8]; 323 g/ha): 5 (Herbicidal rate of 90% or more (almost completely withered)); Herbicidal effect, C: oval-leafed pondweed [9, 19]: 5 (Herbicidal rate of 90% or more (almost completely withered)); Herbicidal effect, A: late watergrass [10, 19]: 5 (Herbicidal rate of 90% or more (almost completely withered)); herbicidal effect on Chinese sprangletop (D) ([11]; 323 g/ha): 5 (Herbicidal rate of 90% or more (almost completely withered)); I: wild oat, herbicidal effect grade ([12]; 323 g/ha): 5 (Herbicidal rate of 90% or more (almost completely withered)); herbicidal effect rating, C: oval-leafed pondweed ([13]; AAH 323 g/ha): 4 (Herbicidal rate of 70% or more and less than 90%); F: southern crabgrass, herbicidal effect grade ([14]; 323 g/ha): 4 (Herbicidal rate of 70% or more and less than 90%); Q: false cleavers, herbicidal effect grade [15, 19]: 4 (Herbicidal rate of 70% or more and less than 90%); G: green foxtail, herbicidal effect grade ([16]; 323 g/ha): 4 (Herbicidal rate of 70% or more and less than 90%); Herbicidal effect, B: Japanese bulrush [17, 19]: 5 (Herbicidal rate of 90% or more (almost completely withered))
COc1ccc(-c2oc3ccc(Cl)cc3c2-c2c(O)c(C)nn(C)c2=O)cc1 [9-002] |  | 5 (Herbicidal rate of 90% or more (almost completely withered)) | 4 (Herbicidal rate of 70% or more and less than 90%) |  |  | 2 (Herbicidal rate of 20% or more and less than 40%) | 4 (Herbicidal rate of 70% or more and less than 90%) |  | 2 (Herbicidal rate of 20% or more and less than 40%) | 0 (Herbicidal rate of 5% or less (almost no effect)) |  |  | 3 (Herbicidal rate of 40% or more and less than 70%) |  | 0 (Herbicidal rate of 5% or less (almost no effect)) |  | 3 (Herbicidal rate of 40% or more and less than 70%) | herbicidal effect on lambsquarters (O) ([1]; 320 g/ha): 4 (Herbicidal rate of 70% or more and less than 90%); herbicidal effect on windgrass (L) ([4]; 320 g/ha): 1 (Herbicidal rate of 5% or more and less than 20%); Herbicidal effect on E (rice flat sedge), foliage application [5, 18]: 2 (Herbicidal rate of 20% or more and less than 40%); herbicidal effect on barnyard grass (H) ([8]; 320 g/ha): 0 (Herbicidal rate of 5% or less (almost no effect)); Herbicidal effect on D (Chinese sprangletop), foliage application [11, 18]: 0 (Herbicidal rate of 5% or less (almost no effect)); herbicidal effect on wild oat (I) ([12]; 320 g/ha): 0 (Herbicidal rate of 5% or less (almost no effect)); herbicidal effect on southern crabgrass (F) ([14]; 320 g/ha): 0 (Herbicidal rate of 5% or less (almost no effect)); herbicidal effect on green foxtail (G) ([16]; 320 g/ha): 0 (Herbicidal rate of 5% or less (almost no effect))
